According to patent US20160206633A1, “dhS1P AND USE OF SAME AS AN ANTICANCER THERAPEUTIC AND IMMUNOMODULATOR” (Penn State Research Foundation, Inc., priority 2013, published 2016):

Assays:
[1] = system: sphingolipids in tumor and serum; assay: Lipidomics (LC-MS3) of sphingolipids in tumors and serum of treated tumor-bearing mice; type: in vivo; conditions: generally
Procedure: To explore how PhotoImmunoNanoTherapy could be regulating the immune system, an analysis of the “sphingolipidome” was studied in tumors and serum collected from treated tumor-bearing mice. As PhotoImmunoNanoTherapy modulated the immune system, and was efficacious in both athymic nude mice and BALB/cJ mice, in depth “sphingolipidomic” studies were performed in athymic nude mice bearing MDA-MB-231 tumors to focus more precisely on mediation of T-cell-independent immunity as well as BALB/cJ mice bearing 410.4 tumors (FIG. 5A-F). […] Intriguingly, an increase in tumor S1P was observed as a function of PhotoImmunoNanoTherapy in both models (FIG. 5D), as well as an increase in the precursor sphingosine in the athymic nude mouse model (MDA-MB-231 tumor) (FIG. 5C). […] Of particular interest, the mass levels of phosphorylated sphingolipid species were much higher in serum than in tumor tissue possibly reflective of a release of phosphorylated sphingolipids in response to PhotoImmunoNanoTherapy. Intriguingly, the increase in the amount of dhS1P was more dramatic than the increase in S1P. In the MDA-MB-231, BxPC-3, and SAOS-2-LM7 models there were a 65%, 79%, and 43% increase in dhS1P, respectively, and these compared with respective increases in S1P of only 29%, 27%, and 10%. […]

[2] = system: isolated IMCs (GEMM colonies, multipotent myeloid progenitor cells); assay: CFU-GEMM colony forming assay of isolated IMCs; type: cell-based, athymic nude mice; conditions: 5 μM, GEMM-supportive semi-solid media, 3 weeks of culture
Procedure: (A) Splenic IMCs (Gr-1+CD11b+, also defined as MDSCs: myeloid-derived suppressor cells) were isolated from MDA-MB-231 tumor-bearing athymic nude mice and exposed to BSA, S1P (5 μM), or dhS1P (5 μM). Following 24-hour culture incubation, cells were labeled with specific antibodies and analyzed by multicolor flow cytometry (red: IMCs; blue: possible B-cells). (B) Splenic IMCs were isolated from MDA-MB-231 tumor-bearing athymic nude mice and cultured (5×10^4 cells/mL) in GEMM-supportive semi-solid media with BSA, S1P (5 μM), or dhS1P (5 μM). GEMM colonies (multipotent myeloid progenitor cells) were visualized and counted after 3 weeks of culture. ANOVA, *p<0.01 compared to no treatment or BSA-treatment, ***p<0.001 compared to S1P-treatment, n≧3. (C) Splenic hematopoietic progenitors (Lineage-Sca-1+CD117+) were isolated from MDA-MB-231 tumor-bearing athymic nude mice and exposed to BSA, S1P (5 μM), or dhS1P (5 μM). Following 24-hour culture incubation, cells were labeled with specific antibodies and analyzed by multicolor flow cytometry. […]
Isolated IMCs from the spleens of tumor-bearing athymic nude mice were cultured (5×10^4 cells/mL) in GEMM-supportive complete (mouse) methylcellulose media (R&D Systems, Minneapolis, Minn.), according to the manufacturer's instructions, with BSA, S1P (5 μM), or dhS1P (5 μM). GEMM colonies were visualized and counted after 3 weeks of culture.

[3] = system: splenic hematopoietic progenitors (Lineage-Sca-1+CD117+); assay: Isolated splenic hematopoietic progenitors exposed to dhS1P, multicolor flow cytometry; type: cell-based, athymic nude mice; conditions: 5 μM, 24-hour culture
Procedure: (A) Splenic IMCs (Gr-1+CD11b+, also defined as MDSCs: myeloid-derived suppressor cells) were isolated from MDA-MB-231 tumor-bearing athymic nude mice and exposed to BSA, S1P (5 μM), or dhS1P (5 μM). Following 24-hour culture incubation, cells were labeled with specific antibodies and analyzed by multicolor flow cytometry (red: IMCs; blue: possible B-cells). (B) Splenic IMCs were isolated from MDA-MB-231 tumor-bearing athymic nude mice and cultured (5×10^4 cells/mL) in GEMM-supportive semi-solid media with BSA, S1P (5 μM), or dhS1P (5 μM). GEMM colonies (multipotent myeloid progenitor cells) were visualized and counted after 3 weeks of culture. ANOVA, *p<0.01 compared to no treatment or BSA-treatment, ***p<0.001 compared to S1P-treatment, n≧3. (C) Splenic hematopoietic progenitors (Lineage-Sca-1+CD117+) were isolated from MDA-MB-231 tumor-bearing athymic nude mice and exposed to BSA, S1P (5 μM), or dhS1P (5 μM). Following 24-hour culture incubation, cells were labeled with specific antibodies and analyzed by multicolor flow cytometry.
Splenocytes were harvested from tumor-bearing mice by mechanical disruption in red blood cell lysis buffer. Splenocytes were washed, and resuspended in PBS with Mouse BD Fc Block (1 μg per 1×10^6 splenocytes), and incubated for 15 minutes at 4° C. For IMC isolation, antibodies targeting Gr-1 (FITC) and CD11b (PE-Cy7) were added. […]

In the case of `CCCCCCCCCCCCCCC[C@@H](O)[C@@H](N)COP(=O)(O)O` [dhS1P, dihydrosphingosine-1-phosphate], the “Serum levels measured in the experiments” value [1] is reported as “around 0.005 mg/kg”, the CFU-GEMM colony formation [2] is reported as “completely abrogated” and the “CD19+CD45R B220+ cellular population from isolated hematopoietic progenitors” value [3] is reported as “mediated the expansion”.
